Where two headings read alike, the source gives them in different places.
T1: human PTH1 receptor (Homo sapiens, UniProt Q03431)
T1 sequence (Q03431 27-593): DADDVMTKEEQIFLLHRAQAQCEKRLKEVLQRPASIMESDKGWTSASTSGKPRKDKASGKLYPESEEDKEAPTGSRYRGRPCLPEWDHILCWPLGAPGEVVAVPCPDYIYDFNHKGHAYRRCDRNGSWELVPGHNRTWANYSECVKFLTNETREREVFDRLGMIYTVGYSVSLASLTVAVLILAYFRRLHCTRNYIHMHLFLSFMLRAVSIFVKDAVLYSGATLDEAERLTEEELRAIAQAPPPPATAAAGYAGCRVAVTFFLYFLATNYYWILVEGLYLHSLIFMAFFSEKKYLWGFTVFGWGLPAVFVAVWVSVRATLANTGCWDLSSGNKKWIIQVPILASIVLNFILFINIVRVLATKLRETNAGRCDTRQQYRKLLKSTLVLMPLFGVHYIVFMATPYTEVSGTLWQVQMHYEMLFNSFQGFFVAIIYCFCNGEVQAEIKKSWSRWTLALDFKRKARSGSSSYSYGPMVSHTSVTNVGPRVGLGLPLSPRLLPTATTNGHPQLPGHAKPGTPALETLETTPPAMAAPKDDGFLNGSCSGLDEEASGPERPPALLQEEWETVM


Tests used:
[1] = subcutaneous administration, cited from earlier work
[2] = subcutaneous administration, cited from earlier work; remark: listed apart in the source
human PTH1 receptor = target: T1, human PTH1 receptor; test: In vitro cAMP signal activity in HKRK-B7 cells (LLC-PK1 cells overexpressing the human PTH1 receptor); assay type: cell-based; settings: HKRK-B7 cells; compound at 1×10^−3 M; cAMP produced as percentage of that produced by hPTH(1-34) at 100 nM

cAMP production activity (%) (human PTH1 receptor)	Molecule	further results
–	CC[C@H](C)[C@H](NC(=O)[C@H](CCC(=O)O)NC(=O)[C@H](CO)NC(=O)[C@@H](NC(=O)[C@@H](N)CO)C(C)C)C(=O)N[C@@H](CCC(N)=O)C(=O)N[C@@H](CC(C)C)C(=O)N[C@@H](CCSC)C(=O)N[C@@H](Cc1cnc[nH]1)C(=O)N[C@@H](CC(N)=O)C(=O)N[C@@H](CC(C)C)C(=O)NCC(=O)N[C@@H](CCCCN)C(=O)N[C@@H](Cc1cnc[nH]1)C(=O)N[C@@H](CC(C)C)C(=O)N[C@@H](CC(N)=O)C(=O)N[C@@H](CO)C(=O)N[C@@H](CCSC)C(=O)N[C@@H](CCC(=O)O)C(=O)N[C@@H](CCCN=C(N)N)C(=O)N[C@H](C(=O)N[C@@H](CCC(=O)O)C(=O)N[C@@H](Cc1c[nH]c2ccccc12)C(=O)N[C@@H](CC(C)C)C(=O)N[C@@H](CCCN=C(N)N)C(=O)N[C@@H](CCCCN)C(=O)N[C@@H](CCCCN)C(=O)N[C@@H](CC(C)C)C(=O)N[C@@H](CCC(N)=O)C(=O)N[C@@H](CC(=O)O)C(=O)N[C@H](C(=O)N[C@@H](Cc1cnc[nH]1)C(=O)N[C@@H](CC(N)=O)C(=O)N[C@@H](Cc1ccccc1)C(=O)O)C(C)C)C(C)C [human PTH(1-34), teriparatide]	increase of the spine bone mineral density (BMD) ([1]; in one year): 8%; decrease of the risk of nonvertebral fracture ([2]; in two years): 55%; decrease of the risk of vertebral fracture ([2]; in two years): 65%
124	Cc1cc(N2CCOCC2=O)cc(C)c1/C=C/S(=O)(=O)N1CCC2(CC1)N=C(C1CCC(CCC(F)(F)F)CC1)NC2=O (stereo not shown) [Compound 550, 8-{(E)-2-[2,6-dimethyl-4-(3-oxo-morpholin-4-yl)-phenyl]-ethenesulfonyl}-2-[4-(3,3,3-trifluoro-propyl)-cyclohexyl]-1,3,8-triaza-spiro[4.5]dec-1-en-4-one]	–
4.1	Cc1cc2c(ccn2C[C@@H](O)CO)c(C)c1/C=C/S(=O)(=O)N1CCC2(CC1)N=C(C1CCC(CCC(F)(F)F)CC1)NC2=O (stereo partly drawn) [Compound 630, 8-{(E)-2-[1-((R)-2,3-dihydroxy-propyl)-4,6-dimethyl-1H-indol-5-yl]-ethenesulfonyl}-2-[4-(3,3,3-trifluoro-propyl)-cyclohexyl]-1,3,8-triaza-spiro[4.5]dec-1-en-4-one]	–
44	Cc1cc(C(=O)N2CC(O)C2)cc(C)c1CCS(=O)(=O)N1CCC2(CC1)N=C(c1ccc(F)c(OC(F)(F)F)c1)NC2=O [Compound 1337, 2-(4-fluoro-3-trifluoromethoxy-phenyl)-8-{2-[4-(3-hydroxy-azetidine-1-carbonyl)-2,6-dimethyl-phenyl]-ethanesulfonyl}-1,3,8-triaza-spiro[4.5]dec-1-en-4-one]	–
17	O=C(c1ccc(Cl)cc1)N1CCCC(C2=NC3(CCN(S(=O)(=O)c4cccc(Cl)c4)CC3)C(=O)N2)C1 (stereo not shown) [Compound 425, 8-(3-Chloro-benzenesulfonyl)-2-[1-(4-chloro-benzoyl)-piperidin-3-yl]-1,3,8-triaza-spiro[4.5]dec-1-en-4-one]	–
56	CC(=O)Nc1ccc(CCS(=O)(=O)N2CCC3(CC2)N=C(C2CCCC2)NC3=O)c(C)c1 [Compound 903, N-{4-[2-(2-Cyclopentyl-4-oxo-1,3,8-triaza-spiro[4.5]dec-1-ene-8-sulfonyl)-ethyl]-3-methyl-phenyl}-acetamide]	–
79	Cc1cc(NC2=NCCS2)cc(C)c1/C=C/S(=O)(=O)N1CCC2(CC1)N=C(C1CCCCC1)NC2=O [Compound 738, 2-Cyclohexyl-8-{(E)-2-[4-(4,5-dihydro-thiazol-2-ylamino)-2,6-dimethyl-phenyl]-ethenesulfonyl}-1,3,8-triaza-spiro[4.5]dec-1-en-4-one]	–
51	Cc1cc(C(=O)N2C[C@@H](C)O[C@@H](C)C2)ccc1CCS(=O)(=O)N1CCC2(CC1)N=C(c1cccc(OC(F)(F)F)c1)NC2=O [Compound 666, 8-{2-[4-((2R,6S)-2,6-dimethyl-morpholine-4-carbonyl)-2-methyl-phenyl]-ethanesulfonyl}-2-(3-trifluoromethoxy-phenyl)-1,3,8-triaza-spiro[4.5]dec-1-en-4-one]	–
26	O=C1NC(CCC2CCCCC2)=NC12CCN(S(=O)(=O)c1cccc(Cl)c1)CC2 [Compound 30, 8-(3-chloro-benzenesulfonyl)-2-(2-cyclohexyl-ethyl)-1,3,8-triaza-spiro[4.5]dec-1-en-4-one]	–
–	human PTH(1-84): "Native human parathyroid hormone is a polypeptide consisting of 84 amino acids" (protein, UniProt P01270 32-115, looked up, Parathyroid hormone) Parathyroid hormone: SVSEIQLMHNLGKHLNSMERVEWLRKKLQDVHNFVALGAPLAPRDAGSQRPRKKEDNVLVESHEKSLGEADKADVNVLTKAKSQ	increase of the spine bone mineral density (BMD) ([1]; in 18 months): 6.9%; decrease of the risk of vertebral fracture ([2]; 18-month study): 58%

Reference: patent US9169254B2, “Spiroimidazolone derivative” (Chugai Seiyaku Kabushiki Kaisha, priority 2009, dated 2015)
